Measured values from US7314744B2, “Hyperthermostable protease gene” (Takara Bio Inc., priority 1995, dated 2008).
Square brackets hold non-standard residues; d marks the D form. Peptide text beside a SMILES is read from it. * marks the point of attachment. Sta = CC(C)C[C@H](N)[C@@H](O)CC(=O)O; Isovaleryl = CC(C)CC(=O)*

B1: TC-3: crude enzyme preparation of protease TCES (Thermococcus celer) obtained from Bacillus subtilis DB104/pSTC3 (protein)
chain: MKRLGAVVLALVLVGLLAGTALAAPVKPVVRNNAVQQKNYGLLTPGLFKKVQRMNWNQEVDTVIMFGSYGDRDRAVKVLRLMGAQVKYSYKIIPAVAVKIKARDLLLIAGMIDTGYFGNTRVSGIKFIQEDYKVQVDDATSVSQIGADTVWNSLGYDGSGVVVAIVDTGIDANHPDLKGKVIGWYDAVNGRSTPYDDQGHGTHVAGIVAGTGSVNSQYIGVAPGAKLVGVKVLGADGSGSVSTIIAGVDWVVQNKDKYGIRVINLSLGSSQSSDGTDSLSQAVNNAWDAGIVVCVAAGNSGPNTYTVGSPAAASKVITVGAVDSNDNIASFSSRGPTADGRLKPEVVAPGVDIIAPRASGTSMGTPINDYYTKASGTSMATPHVSGVGALILQAHPSWTPDKVKTALIETADIVAPKEIADIAYGAGRVNVYKAIKYDDYAKLTFTGSVADKGSATHTFDVSGATFVTATLYWDTGSSDIDLYLYDPNGNEVDYSYTAYYGFEKVGYYNPTAGTWTVKVVSYKGAANYQVDVVSDGSLSQSGGGNPNPNPNPNPTPTTDTQTFTGSVNDYWDTSDTFTMNVNSGATKITGDLTFDTSYNDLDLYLYDPNGNLVDRSTSSNSYEHVEYANPAPGTWTFLVYAYSTYGWADYQLKAVVYYG

Columns and labels:
[1] = test system: enzyme preparation TCES (protease TCES); assay: Effects of various reagents on enzyme preparation TCES; type: biochemical, Thermococcus celer; details: for effect of reagent on activity of TCES, in words: 37° C., 30 minutes, 1 mM reagent; for enzyme activity of TCES after treatment with reagent, compared with control (no reagent): treated at 37° C. for 30 minutes, reagent final concentration 1 mM, control 100%
Description: (§1) The enzyme activity of the enzyme preparation TC-3 obtained in the present invention can be measured using as a substrate Suc-Leu-Leu-Val-Tyr-MCA (SEQ ID NO:43) (manufactured by Peptide Laboratory). That is, the enzyme preparation to be detected for the enzyme activity is appropriately diluted, to 20 μl of the solution is added 80 μl of a 0.1M sodium phosphate buffer (pH 7.0) containing 62.5 μM Suc-Leu-Leu-Val-Tyr-MCA (SEQ ID NO:43), followed by incubating at 75° C. for 30 minutes. After the reaction is stopped by the addition of 20 μl of 30% acetic acid, the fluorescent intensity is measured at the excitation wavelength of 355 nm and the fluorescence wavelength of 460 nm to quantitate an amount of the generated 7-amino-4-methylcoumarin, and the resulting value is compared with that obtained when incubating without the addition of the enzyme preparation, to investigate the enzyme activity.
(§2) The effects of various reagents on the enzyme preparations TCES and NAPS-1 obtained by the present invention were investigated. That is, the above enzyme preparations were treated at 37° C. for 30 minutes in the presence of the various reagents at the final concentration of 1 mM, and an aliquot thereof was taken to determine the enzyme activity by the method described in the above (2) to compare with that (control) when no reagent was added.

[2] = test system: enzyme preparation NAPS-1 (protease PFUS); assay: Effects of various reagents on enzyme preparation NAPS-1; type: biochemical, Pyrococcus furiosus; details: for effect of reagent on activity of NAPS-1, in words: 37° C., 30 minutes, 1 mM reagent; for enzyme activity of NAPS-1 after treatment with reagent, compared with control (no reagent): treated at 37° C. for 30 minutes, reagent final concentration 1 mM, control 100%
Description: (§3) In addition, the enzyme activity of the enzyme preparations NP-1, PT-1, NAPS-1 and NAPS-LS can be photometrically measured using Suc-Ala-Ala-Pro-Phe-p-NA (SEQ ID NO:44) (manufactured by Sigma) as a substrate. That is, an enzyme preparation to be detected for the enzyme activity was appropriately diluted, to 50 μl of the solution was added 50 μl of a 0.1M potassium phosphate buffer (pH 7.0) containing Suc-Ala-Ala-Pro-Phe-p-NA (SEQ ID NO:44) (Suc-Ala-Ala-Pro-Phe-p-NA(SEQ ID NO:44) solution), followed by incubating at 95° C. for 30 minutes. After the reaction was stopped by ice-cooling, the absorbance at 405 nm was measured to quantitate an amount of the generated p-nitroaniline, and the resulting value was compared with that when incubating without the addition of the enzyme preparation, to investigate the enzyme activity. Upon this, a 0.2 mM solution of Suc-Ala-Ala-Pro-Phe-p-NA (SEQ ID NO:44) was used for the enzyme preparations NP-1 and PT-1 and a 1 mM solution was used for the enzyme preparations NAPS-1 and NAPS-1S.
as §2

[3] = test system: Suc-Leu-Leu-Val-Tyr-MCA; assay: Suc-Leu-Leu-Val-Tyr-MCA hydrolyzing activity (fluorescence); type: biochemical; details: pH 7.0 and 75° C., 30 minutes
Description: as §1
(§4) The activity of the enzyme preparations obtained in the present invention on the synthetic peptide substrates is confirmed by a method for measuring the enzyme activity described in the above (2). […] In addition, the activity of the enzyme preparations obtained in the present invention on gelatin can be detected by confirming the degradation of gelatin by an enzyme on the SDS-polyacrylamide gel. […]

[4] = test system: Suc-Ala-Ala-Pro-Phe-p-NA; assay: Suc-Ala-Ala-Pro-Phe-p-NA hydrolyzing activity (absorbance at 405 nm); type: biochemical; details: pH 7.0 and 95° C., 30 minutes
Description: as §3, with “Upon this, a 0.2 mM solution of Suc-Ala-Ala-Pro-Phe-p-NA (SEQ ID NO:44) was used for the enzyme preparations NP-1 and PT-1 and a 1 mM solution was used for the enzyme preparations NAPS-1 and NAPS-1S.” left out
as §4

[5] = test system: gelatin; assay: Gelatin degradation on gelatin-containing SDS-polyacrylamide gel; type: biochemical; details: gel with 0.05% gelatin, pH 7.0, 95° C., 3 hours
Description: The activity of the enzyme preparations obtained in the present invention on the synthetic peptide substrates is confirmed by a method for measuring the enzyme activity described in the above (2). That is, the enzyme preparation TC-3 obtained in the present invention has the Suc-Leu-Leu-Val-Tyr-MCA (SEQ ID NO:43) hydrlyzing activity, and the enzyme preparations NP-1, PT-1, NAPS-1 and NAPS-1A have the Suc-Ala-Ala-Pro-Phe-p-NA (SEQ ID NO:44) hydrlyzing activity, respectively. […] In addition, the activity of the enzyme preparations obtained in the present invention on gelatin can be detected by confirming the degradation of gelatin by an enzyme on the SDS-polyacrylamide gel. That is, the enzyme preparation to be detected for the enzyme activity was appropriately diluted, to 10 μl of the sample solution was added 2.5 μl of a sample buffer (50 mM Tris-HCl, pH 7.5, 5% SDS, 5% 2-mercaptoethanol, 0.005% Bromophenol Blue. 50% glycerol), followed by treatment at 100° C. for 5 minutes and electrophoresis using 0.1% SDS-10% polyacrylamide gel containing 0.05% gelatin. […] The presence of the protease activity was detected by the fact that gelatin is hydrolyzed by a protease into peptides which are diffused out of the gel and, consequently, the relevant portion of the gel was not stained with Coomassie Brilliant Blue.

[6] = test system: casein; assay: Casein degradation on casein-containing SDS-polyacrylamide gel; type: biochemical; details: gel with 0.05% casein, 95° C.
[7] = Thermostability of enzyme preparation (residual activity after heat-treatment); type: physicochemical; details: 80° C., 20 mM Tris-HCl pH 7.5, 3 hours
Description: The thermostability of the enzyme preparation TC-3 obtained by the present invention was investigated. That is, the enzyme preparation was incubated at 80° C. in 20 mM Tris-HCl, pH 7.5 for various periods of time, an appropriate amount thereof was taken to measure the enzyme activity by the method shown in the above (2), and the activity was compared with that when not heat-treated.
In addition, the thermostability of the enzyme preparation NP-1 obtained in the present invention was investigated. That is, the enzyme preparation was incubated at 95° C. in 20 mM Tris-HCl, pH 7.5 for various periods of time, an appropriate aliquot was taken to determine the enzyme activity by the method shown in the above (2), and the enzyme activity was compared with that when not heat-treated. […] This is considered to be because a protease produced as a precursor causes the self-catalytic activation during the heat-treatment.
In addition, the above enzyme preparation NP-1 activated by the heat-treatment was investigated for the thermostability. That is, the enzyme preparation NP-1 was activated by the heat-treatment at 95° C. for 30 minutes, incubated at 95° C. for various periods of time, and the activity was determined as described above to compare with that when not heat-treated. […]

Molecule	enzyme activity of TCES after treatment with reagent, compared with control (no reagent) [1]	effect of reagent on activity of NAPS-1, in words [2]	enzyme activity of NAPS-1 after treatment with reagent, compared with control (no reagent) [2]	further results
CC(C)C[C@H](NC(=O)[C@@H](NC(=O)N[C@@H](Cc1ccccc1)C(=O)O)[C@@H]1CCN=C(N)N1)C(=O)N[C@H](C=O)Cc1ccccc1 [Chymostatin]	0%	remarkably decreased activity	6.6%	effect of reagent on activity of TCES, in words [1]: remarkably decreased activity
O=C(O)CN(CCN(CC(=O)O)CC(=O)O)CC(=O)O [EDTA]	103.5%	the decrease in the activity was observed	36.1%	
CC(=O)N[C@@H](CC(C)C)C(=O)N[C@@H](CC(C)C)C(=O)N[C@H](C=O)CCCNC(=N)N [Leupeptin]	104.5%		89.3%	
CCN1C(=O)C=CC1=O [N-ethylmaleimide]	82.6%		102.6%	
O=S(=O)(F)Cc1ccccc1 [PMSF, phenylmethanesulfonyl fluoride]	8.1%	remarkably decreased activity	0.1%	effect of reagent on activity of TCES, in words [1]: remarkably decreased activity
CC(C)CC(=O)N[C@H](C(=O)N[C@H](C(=O)N[C@@H](CC(C)C)[C@@H](O)CC(=O)N[C@@H](C)C(=O)N[C@@H](CC(C)C)[C@@H](O)CC(=O)O)C(C)C)C(C)C [Pepstatin] (Isovaleryl-VV[Sta]A[Sta]-OH)	105.2%		100.7%	
B1				Suc-Leu-Leu-Val-Tyr-MCA hydrolyzing activity [3]: had the Suc-Leu-Leu-Val-Tyr-MCA (SEQ ID NO:43) hydrolyzing activity; Suc-Ala-Ala-Pro-Phe-p-NA hydrolyzing activity [4]: the activity to degrade the substrate was recognized; gelatin hydrolyzing activity [5]: had the gelatin hydrolyzing activity; casein hydrolyzing activity (gel) [6]: had the casein hydrolyzing activity; residual activity after heat-treatment [7]: not less than 90%
